Tested on: Transport facilitation protein genes
Assay: DNA chip mRNA expression in yeast, transport facilitation protein genes (Table 5)
Format: cell-based, Saccharomyces cerevisiae S288C
Protocol: Yeast (Saccharomyces cerevisiae S288C (α SUC2mal mel gap2 CUP1)) were incubated at 25° C. on YPD medium (yeast extract 1%, polypepton 2%, glucose 2%). One of toxic chemical substances was added to the cells at logarithmic growth phase, and the cells were further incubated for two hours. Cells were cultured without any chemical substance in the same condition, and were used as control. Concentrations of the chemical substances were defined to inhibit the growth of the yeast but not lead to death.
After completion of the incubation, the culture was centrifuged to collect the cells. To the cells, sodium acetate buffer (50 mM sodium acetate, 10 mM EDTA, 1% SDS) was added, and the mixture was shaken at 65° C. for five minutes, followed by returning to room temperature, and obtaining the supernatant, of which the procedures were repeated two times. To the supernatant, ½ amount of a solution of phenol/chloroform was added, and the mixture was centrifuged to give a supernatant, which was added with an equal amount of chloroform, and the mixture was centrifuged to give a supernatant. To the supernatant, an equal amount of isopropanol containing 0.3 M sodium acetate was added, and the mixture was allowed to stand at room temperature for 30 minutes, after which the mixture was centrifuged to give a sediment of the whole RNAs. Seventy % ethanol was added to the sediment, and the mixture was again centrifuged to give a sediment, which was then dried and dissolved in water. mRNA was isolated from the whole RNAs as followings. In view of the fact that a poly A chain is attached to the 3′ terminus of mRNA, a polynucleotide having a poly T structure which was immobilized on the surface of latex beads was used to trap the mRNA, and then the mRNA was washed and eluted with spine column (Oligotex-dT30<Super>mRNA Purification Kit, Takara). Reverse transcription of the mRNA was conducted with a reverse transcriptase (Super Script II Reverse Transcriptase; catalogue No. 18064-014, GibcoBRL) using fluorescence-labeled nucleotides to give cDNAs that were introduced with Cy3-dUTP or Cy5-dUTP during the reverse transcription.
The labeled cDNAs were dissolved in TE buffer (10mM Tris-HCl/1 mM EDTA, pH8.0), and the solution was dropped on the DNA chip containing the whole genes of yeast (DNA Chip Research Inc. Japan) so that the cDNAs were hybridized on the DNA chip at 65° C. for over 12 hours. The fluoresces intensity of the DNA chip was read with a scanner, and the ratio relative to the fluorescence intensity resulting from the absence of chemical substance was estimated as the following, which is shown in Tables 1 to 9: […]

Cl[C@H]1[C@H](Cl)[C@@H](Cl)[C@@H](Cl)[C@H](Cl)[C@H]1Cl [(7), γ-hexachlorocyclohexane]
The level of expressed mRNA in the presence of chemical substance/The level of expressed mRNA in the absence of chemical substance (yeast gene YBL030C): 0.9
The level of expressed mRNA in the presence of chemical substance/The level of expressed mRNA in the absence of chemical substance (yeast gene YBL099W): 0.9
The level of expressed mRNA in the presence of chemical substance/The level of expressed mRNA in the absence of chemical substance (yeast gene YBR052C): 3.0
The level of expressed mRNA in the presence of chemical substance/The level of expressed mRNA in the absence of chemical substance (yeast gene YBR127C): 0.9
The level of expressed mRNA in the presence of chemical substance/The level of expressed mRNA in the absence of chemical substance (yeast gene YBR132C): 1.1
The level of expressed mRNA in the presence of chemical substance/The level of expressed mRNA in the absence of chemical substance (yeast gene YBR207W): 4.3
The level of expressed mRNA in the presence of chemical substance/The level of expressed mRNA in the absence of chemical substance (yeast gene YBR293W): 0.9
The level of expressed mRNA in the presence of chemical substance/The level of expressed mRNA in the absence of chemical substance (yeast gene YBR294W): 1.1
The level of expressed mRNA in the presence of chemical substance/The level of expressed mRNA in the absence of chemical substance (yeast gene YBR295W): 1.6
The level of expressed mRNA in the presence of chemical substance/The level of expressed mRNA in the absence of chemical substance (yeast gene YBR298C): 1.7
The level of expressed mRNA in the presence of chemical substance/The level of expressed mRNA in the absence of chemical substance (yeast gene YCL025C): 0.7
The level of expressed mRNA in the presence of chemical substance/The level of expressed mRNA in the absence of chemical substance (yeast gene YCL038C): 1.5
The level of expressed mRNA in the presence of chemical substance/The level of expressed mRNA in the absence of chemical substance (yeast gene YCR024C-A): 0.8
The level of expressed mRNA in the presence of chemical substance/The level of expressed mRNA in the absence of chemical substance (yeast gene YCR037C): 1.0
The level of expressed mRNA in the presence of chemical substance/The level of expressed mRNA in the absence of chemical substance (yeast gene YCR098C): 1.2
The level of expressed mRNA in the presence of chemical substance/The level of expressed mRNA in the absence of chemical substance (yeast gene YDL128W): 0.9
The level of expressed mRNA in the presence of chemical substance/The level of expressed mRNA in the absence of chemical substance (yeast gene YDL198C): 1.0
The level of expressed mRNA in the presence of chemical substance/The level of expressed mRNA in the absence of chemical substance (yeast gene YDL210W): 0.8
The level of expressed mRNA in the presence of chemical substance/The level of expressed mRNA in the absence of chemical substance (yeast gene YDL245C): 1.2
The level of expressed mRNA in the presence of chemical substance/The level of expressed mRNA in the absence of chemical substance (yeast gene YDR038C): 0.7
The level of expressed mRNA in the presence of chemical substance/The level of expressed mRNA in the absence of chemical substance (yeast gene YDR039C): 0.8
The level of expressed mRNA in the presence of chemical substance/The level of expressed mRNA in the absence of chemical substance (yeast gene YDR086C): 2.0
The level of expressed mRNA in the presence of chemical substance/The level of expressed mRNA in the absence of chemical substance (yeast gene YDR270W): 1.7
The level of expressed mRNA in the presence of chemical substance/The level of expressed mRNA in the absence of chemical substance (yeast gene YDR298C): 1.0
The level of expressed mRNA in the presence of chemical substance/The level of expressed mRNA in the absence of chemical substance (yeast gene YDR342C): 0.8
The level of expressed mRNA in the presence of chemical substance/The level of expressed mRNA in the absence of chemical substance (yeast gene YDR343C): 0.7
The level of expressed mRNA in the presence of chemical substance/The level of expressed mRNA in the absence of chemical substance (yeast gene YDR345C): 1.1
The level of expressed mRNA in the presence of chemical substance/The level of expressed mRNA in the absence of chemical substance (yeast gene YDR387C): 1.3
The level of expressed mRNA in the presence of chemical substance/The level of expressed mRNA in the absence of chemical substance (yeast gene YDR497C): 0.5
The level of expressed mRNA in the presence of chemical substance/The level of expressed mRNA in the absence of chemical substance (yeast gene YEL027W): 0.8
The level of expressed mRNA in the presence of chemical substance/The level of expressed mRNA in the absence of chemical substance (yeast gene YEL063C): 0.7
The level of expressed mRNA in the presence of chemical substance/The level of expressed mRNA in the absence of chemical substance (yeast gene YEL065W): 4.3
The level of expressed mRNA in the presence of chemical substance/The level of expressed mRNA in the absence of chemical substance (yeast gene YER053C): 2.8
The level of expressed mRNA in the presence of chemical substance/The level of expressed mRNA in the absence of chemical substance (yeast gene YFL011W): 0.8
The level of expressed mRNA in the presence of chemical substance/The level of expressed mRNA in the absence of chemical substance (yeast gene YFL041W): 3.4
The level of expressed mRNA in the presence of chemical substance/The level of expressed mRNA in the absence of chemical substance (yeast gene YFL050C): 0.8
The level of expressed mRNA in the presence of chemical substance/The level of expressed mRNA in the absence of chemical substance (yeast gene YFL054C): 1.1
The level of expressed mRNA in the presence of chemical substance/The level of expressed mRNA in the absence of chemical substance (yeast gene YGL006W): 1.3
The level of expressed mRNA in the presence of chemical substance/The level of expressed mRNA in the absence of chemical substance (yeast gene YGL008C): 1.4
The level of expressed mRNA in the presence of chemical substance/The level of expressed mRNA in the absence of chemical substance (yeast gene YGL104C): 1.2
The level of expressed mRNA in the presence of chemical substance/The level of expressed mRNA in the absence of chemical substance (yeast gene YGL167C): 1.2
The level of expressed mRNA in the presence of chemical substance/The level of expressed mRNA in the absence of chemical substance (yeast gene YGL255W): 1.0
The level of expressed mRNA in the presence of chemical substance/The level of expressed mRNA in the absence of chemical substance (yeast gene YGR055W): 0.6
The level of expressed mRNA in the presence of chemical substance/The level of expressed mRNA in the absence of chemical substance (yeast gene YGR065C): 2.4
The level of expressed mRNA in the presence of chemical substance/The level of expressed mRNA in the absence of chemical substance (yeast gene YGR082W): 0.9
The level of expressed mRNA in the presence of chemical substance/The level of expressed mRNA in the absence of chemical substance (yeast gene YGR096W): 0.9
The level of expressed mRNA in the presence of chemical substance/The level of expressed mRNA in the absence of chemical substance (yeast gene YGR138C): 0.7
The level of expressed mRNA in the presence of chemical substance/The level of expressed mRNA in the absence of chemical substance (yeast gene YGR191W): 0.7
The level of expressed mRNA in the presence of chemical substance/The level of expressed mRNA in the absence of chemical substance (yeast gene YGR197C): 1.3
The level of expressed mRNA in the presence of chemical substance/The level of expressed mRNA in the absence of chemical substance (yeast gene YGR224W): 0.4
